Laboratory results published in US20140171429A1, “BICYCLIC INHIBITORS OF ALK” (ABBVIE INC., priority 2011, published 2014).

Biological target: T1, ALK (Homo sapiens, UniProt Q9UM73)
T1 construct: purchased Millipore
Experiment: ALK kinase assay (HTRF_ALK)
Assay type: biochemical
Conditions: apparent Ki converted from IC50 by the Cheng-Prusoff relationship; ALK (Millipore), 50 μM ATP, 1 h at room temperature

T1 sequence (Q9UM73 19-1620): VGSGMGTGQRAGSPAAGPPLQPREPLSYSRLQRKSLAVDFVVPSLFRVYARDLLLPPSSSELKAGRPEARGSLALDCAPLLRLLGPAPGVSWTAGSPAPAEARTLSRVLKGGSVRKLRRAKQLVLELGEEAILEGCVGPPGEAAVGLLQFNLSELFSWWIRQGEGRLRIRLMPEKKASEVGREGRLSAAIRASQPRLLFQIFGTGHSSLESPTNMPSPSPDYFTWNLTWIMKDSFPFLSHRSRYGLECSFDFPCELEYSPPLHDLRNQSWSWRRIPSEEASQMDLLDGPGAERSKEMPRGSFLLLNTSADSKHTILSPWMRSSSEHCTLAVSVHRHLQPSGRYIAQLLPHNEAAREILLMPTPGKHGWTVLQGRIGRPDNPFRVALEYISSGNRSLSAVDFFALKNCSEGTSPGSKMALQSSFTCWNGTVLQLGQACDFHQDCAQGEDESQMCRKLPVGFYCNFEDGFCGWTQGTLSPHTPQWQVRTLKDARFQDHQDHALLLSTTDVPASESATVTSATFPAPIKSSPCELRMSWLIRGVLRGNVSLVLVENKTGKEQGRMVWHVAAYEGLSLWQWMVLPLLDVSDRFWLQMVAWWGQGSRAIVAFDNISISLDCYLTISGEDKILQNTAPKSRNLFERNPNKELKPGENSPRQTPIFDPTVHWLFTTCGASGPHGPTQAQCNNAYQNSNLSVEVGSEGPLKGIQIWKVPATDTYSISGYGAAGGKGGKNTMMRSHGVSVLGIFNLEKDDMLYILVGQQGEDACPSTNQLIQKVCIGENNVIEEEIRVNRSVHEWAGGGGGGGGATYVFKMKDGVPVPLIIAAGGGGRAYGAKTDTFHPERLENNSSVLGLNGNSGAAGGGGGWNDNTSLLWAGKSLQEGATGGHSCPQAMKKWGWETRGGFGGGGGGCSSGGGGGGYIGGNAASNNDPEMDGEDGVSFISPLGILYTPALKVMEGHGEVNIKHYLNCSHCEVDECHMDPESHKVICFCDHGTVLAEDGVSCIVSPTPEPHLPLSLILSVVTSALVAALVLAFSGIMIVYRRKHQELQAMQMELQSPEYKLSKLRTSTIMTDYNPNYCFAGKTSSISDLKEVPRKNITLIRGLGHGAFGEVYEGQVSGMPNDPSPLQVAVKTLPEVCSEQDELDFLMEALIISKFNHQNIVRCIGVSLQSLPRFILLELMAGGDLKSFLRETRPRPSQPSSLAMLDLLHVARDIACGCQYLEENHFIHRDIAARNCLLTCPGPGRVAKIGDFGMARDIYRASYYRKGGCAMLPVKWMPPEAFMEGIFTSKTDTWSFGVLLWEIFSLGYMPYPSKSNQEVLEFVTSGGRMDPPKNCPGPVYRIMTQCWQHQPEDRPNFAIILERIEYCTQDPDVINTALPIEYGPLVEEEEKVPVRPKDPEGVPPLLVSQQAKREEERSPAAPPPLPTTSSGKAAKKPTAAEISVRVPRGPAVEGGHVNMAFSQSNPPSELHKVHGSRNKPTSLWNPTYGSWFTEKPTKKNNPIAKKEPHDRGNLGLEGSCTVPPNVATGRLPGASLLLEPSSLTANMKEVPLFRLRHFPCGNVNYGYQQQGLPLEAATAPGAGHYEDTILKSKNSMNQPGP

Row | Compound | Ki [nM]
1 | COc1cc(N2CCC(N(C)C)CC2)ccc1Nc1nc(Cc2c(Cl)cccc2Cl)cc2cc[nH]c(=O)c12 [Example 10, 6-(2,6-dichlorobenzyl)-8-({4-[4-(dimethylamino)piperidin-1-yl]-2-methoxyphenyl}amino)-2,7-naphthyridin-1(2H)-one] | 180
2 | COc1cc(C(=O)NCCN2CCCCC2)ccc1Nc1cc(Cc2c(Cl)cccc2Cl)nc2cc[nH]c(=O)c12 [Example 24, 4-{[2-(2,6-dichlorobenzyl)-5-oxo-5,6-dihydro-1,6-naphthyridin-4-yl]amino}-3-methoxy-N-[2-(piperidin-1-yl)ethyl]benzamide] | 8
3 | COc1cc(N2CCN(C)CC2)ccc1Nc1nc(Cc2c(Cl)cccc2Cl)cc2cc[nH]c(=O)c12 [Example 4, 6-(2,6-dichlorobenzyl)-8-{[2-methoxy-4-(4-methylpiperazin-1-yl)phenyl]amino}-2,7-naphthyridin-1(2H)-one] | 64
4 | COc1cc(C(=O)NCCN2CCCC2)ccc1Nc1nc(Cc2c(Cl)cccc2Cl)cc2cc[nH]c(=O)c12 [Example 22, 4-{[3-(2,6-dichlorobenzyl)-8-oxo-7,8-dihydro-2,7-naphthyridin-1-yl]amino}-3-methoxy-N-[2-(pyrrolidin-1-yl)ethyl]benzamide] | 54
5 | COc1cc(C(=O)NCCCN2CCOCC2)ccc1Nc1cc(Cc2c(Cl)cccc2Cl)nc2cc[nH]c(=O)c12 [Example 18, 4-{[2-(2,6-dichlorobenzyl)-5-oxo-5,6-dihydro-1,6-naphthyridin-4-yl]amino}-3-methoxy-N-[3-(morpholin-4-yl)propyl]benzamide] | 51
6 | COc1cc(C(=O)NCCCCN(C)C)ccc1Nc1nc(Cc2c(Cl)cccc2Cl)cc2cc[nH]c(=O)c12 [Example 28, 4-{[3-(2,6-dichlorobenzyl)-8-oxo-7,8-dihydro-2,7-naphthyridin-1-yl]amino}-N-[4-(dimethylamino)butyl]-3-methoxybenzamide] | 36
7 | COc1cc(C(=O)NCCCN2CCOCC2)ccc1Nc1nc(Cc2c(Cl)cccc2Cl)cc2cc[nH]c(=O)c12 [Example 19, 4-{[3-(2,6-dichlorobenzyl)-8-oxo-7,8-dihydro-2,7-naphthyridin-1-yl]amino}-3-methoxy-N-[3-(morpholin-4-yl)propyl]benzamide] | 25
8 | COc1cc(C(=O)NCCN2CCCCC2)ccc1Nc1nc(Cc2c(Cl)cccc2Cl)cc2cc[nH]c(=O)c12 [Example 27, 4-{[3-(2,6-dichlorobenzyl)-8-oxo-7,8-dihydro-2,7-naphthyridin-1-yl]amino}-3-methoxy-N-[2-(piperidin-1-yl)ethyl]benzamide] | 17
9 | COc1cc(N2CCN(C)CC2)ccc1Nc1nc(Cc2c(Cl)cccc2Cl)cc2nc[nH]c(=O)c12 [Example 5, 7-(2,6-dichlorobenzyl)-5-{[2-methoxy-4-(4-methylpiperazin-1-yl)phenyl]amino}pyrido[4,3-d]pyrimidin-4(3H)-one] | 7
10 | COc1cc(C(=O)NCCN2CCN(C)CC2)ccc1Nc1nc(Cc2c(Cl)cccc2Cl)cc2cc[nH]c(=O)c12 [Example 26, 4-{[3-(2,6-dichlorobenzyl)-8-oxo-7,8-dihydro-2,7-naphthyridin-1-yl]amino}-3-methoxy-N-[2-(4-methylpiperazin-1-yl)ethyl]benzamide] | 212
11 | COc1cc(C(=O)NCCN(C)C)ccc1Nc1cc(Cc2c(Cl)cccc2Cl)nc2cc[nH]c(=O)c12 [Example 23, 4-{[2-(2,6-dichlorobenzyl)-5-oxo-5,6-dihydro-1,6-naphthyridin-4-yl]amino}-N-[2-(dimethylamino)ethyl]-3-methoxybenzamide] | 12
12 | O=c1[nH]cnc2cc(Cc3c(Cl)cccc3Cl)nc(Nc3ccc(N4CCNCC4)cc3)c12 [Example 7, 7-(2,6-dichlorobenzyl)-5-{[4-(piperazin-1-yl)phenyl]amino}pyrido[4,3-d]pyrimidin-4(3H)-one] | 10
13 | COc1cc(C(=O)N2CCN(C)CC2)ccc1Nc1nc(Cc2c(Cl)cccc2Cl)cc2cc[nH]c(=O)c12 [Example 17, 6-(2,6-dichlorobenzyl)-8-({2-methoxy-4-[(4-methylpiperazin-1-yl)carbonyl]phenyl}amino)-2,7-naphthyridin-1(2H)-one] | > 1000
14 | COc1cc(C(=O)NCCN2CCN(C)CC2)ccc1Nc1cc(Cc2c(Cl)cccc2Cl)nc2cc[nH]c(=O)c12 [Example 25, 4-{[2-(2,6-dichlorobenzyl)-5-oxo-5,6-dihydro-1,6-naphthyridin-4-yl]amino}-3-methoxy-N-[2-(4-methylpiperazin-1-yl)ethyl]benzamide] | 22
15 | COc1cc(C(=O)NCCN2CCCC2)ccc1Nc1cc(Cc2c(Cl)cccc2Cl)nc2cc[nH]c(=O)c12 [Example 21, 4-{[2-(2,6-dichlorobenzyl)-5-oxo-5,6-dihydro-1,6-naphthyridin-4-yl]amino}-3-methoxy-N-[2-(pyrrolidin-1-yl)ethyl]benzamide] | 25
16 | COc1cc(C(=O)NCCCCN(C)C)ccc1Nc1cc(Cc2c(Cl)cccc2Cl)nc2cc[nH]c(=O)c12 [Example 30, 4-{[2-(2,6-dichlorobenzyl)-5-oxo-5,6-dihydro-1,6-naphthyridin-4-yl]amino}-N-[4-(dimethylamino)butyl]-3-methoxybenzamide] | 20

Continued, values first:

Row | Ki [nM] | Compound
17 | 84 | COc1cc(N2CCNCC2)ccc1Nc1nc(Cc2c(Cl)cccc2Cl)nc2cc[nH]c(=O)c12 [Example 14, 2-(2,6-dichlorobenzyl)-4-{[2-methoxy-4-(piperazin-1-yl)phenyl]amino}pyrido[4,3-d]pyrimidin-5(6H)-one]
18 | 3 | COc1cc(N2CCNCC2)ccc1Nc1nc(Cc2c(Cl)cccc2Cl)cc2cc[nH]c(=O)c12 [Example 8, 6-(2,6-dichlorobenzyl)-8-{[2-methoxy-4-(piperazin-1-yl)phenyl]amino}-2,7-naphthyridin-1(2H)-one]
19 | 1450 | O=c1[nH]ccc2nc(Cc3c(Cl)cccc3Cl)nc(Nc3ccc(N4CCNCC4)cc3)c12 [Example 15, 2-(2,6-dichlorobenzyl)-4-{[4-(piperazin-1-yl)phenyl]amino}pyrido[4,3-d]pyrimidin-5(6H)-one]
20 | 3 | O=c1[nH]ccc2nc(Cc3c(Cl)cccc3Cl)cc(Nc3ccc(N4CCNCC4)c(F)c3)c12 [Example 13, 2-(2,6-dichlorobenzyl)-4-(3-fluoro-4-(piperazin-1-yl)phenylamino)-1,6-naphthyridin-5(6H)-one]
21 | 480 | O=c1[nH]ccc2cc(Cc3c(F)cccc3Cl)nc(Nc3ccc(N4CCNCC4)cc3)c12 [Example 16, 6-(2-chloro-6-fluorobenzyl)-8-{[4-(piperazin-1-yl)phenyl]amino}-2,7-naphthyridin-1(2H)-one]
22 | 72 | O=c1[nH]ccc2nc(Cc3c(Cl)cccc3Cl)cc(Nc3ccc(N4CCNCC4)cc3)c12 [Example 3, 2-(2,6-dichlorobenzyl)-4-{[4-(piperazin-1-yl)phenyl]amino}-1,6-naphthyridin-5(6H)-one]
23 | 6 | COc1cc(N2CCNCC2)ccc1Nc1nc(Cc2c(Cl)cccc2Cl)cc2nc[nH]c(=O)c12 [Example 6, 7-(2,6-dichlorobenzyl)-5-{[2-methoxy-4-(piperazin-1-yl)phenyl]amino}pyrido[4,3-d]pyrimidin-4(3H)-one]
24 | 51 | COc1cc(C(=O)N2CCN(C)CC2)ccc1Nc1cc(Cc2c(Cl)cccc2Cl)nc2cc[nH]c(=O)c12 [Example 20, 2-(2,6-dichlorobenzyl)-4-({2-methoxy-4-[(4-methylpiperazin-1-yl)carbonyl]phenyl}amino)-1,6-naphthyridin-5(6H)-one]
25 | 7 | COc1cc(N2CCNCC2)ccc1Nc1cc(Cc2ccccc2Cl)nc2cc[nH]c(=O)c12 [Example 31, 2-(2-chlorobenzyl)-4-{[2-methoxy-4-(piperazin-1-yl)phenyl]amino}-1,6-naphthyridin-5(6H)-one]
26 | 11 | COc1cc(C(=O)N2CCNCC2)ccc1Nc1cc(Cc2c(Cl)cccc2Cl)nc2cc[nH]c(=O)c12 [Example 29, 2-(2,6-dichlorobenzyl)-4-{[2-methoxy-4-(piperazin-1-ylcarbonyl)phenyl]amino}-1,6-naphthyridin-5(6H)-one]
27 | 13 | COc1cc(N2CCNCC2)ccc1Nc1nc(Cc2c(Cl)cccc2Cl)nc2nc[nH]c(=O)c12 [Example 12, 7-(2,6-dichlorobenzyl)-5-{[2-methoxy-4-(piperazin-1-yl)phenyl]amino}pyrimido[4,5-d]pyrimidin-4(3H)-one]
28 | 8 | COc1cc(N2CCN(C)CC2)ccc1Nc1cc(Cc2c(Cl)cccc2Cl)nc2cc[nH]c(=O)c12 [Example 1, 2-(2,6-dichlorobenzyl)-4-{[2-methoxy-4-(4-methylpiperazin-1-yl)phenyl]amino}-1,6-naphthyridin-5 (6H)-one]
29 | 70 | COc1cc(N2CCNCC2)ccc1Nc1cc(Cc2c(Cl)cccc2Cl)nc2nc[nH]c(=O)c12 [Example 11, 7-(2,6-dichlorobenzyl)-5-{[2-methoxy-4-(piperazin-1-yl)phenyl]amino}pyrido[2,3-d]pyrimidin-4(3H)-one]
30 | 14 | O=c1[nH]ccc2cc(Cc3c(Cl)cccc3Cl)nc(Nc3ccc(N4CCNCC4)cc3)c12 [Example 9, 6-(2,6-dichlorobenzyl)-8-{[4-(piperazin-1-yl)phenyl]amino}-2,7-naphthyridin-1(2H)-one]
31 | 4 | COc1cc(N2CCNCC2)ccc1Nc1cc(Cc2c(Cl)cccc2Cl)nc2cc[nH]c(=O)c12 [Example 2, 2-(2,6-dichlorobenzyl)-4-{[2-methoxy-4-(piperazin-1-yl)phenyl]amino}-1,6-naphthyridin-5(6H)-one]
